Assays:
[1] = biological target: T1, human recombinant ghrelin receptor (GHS-R1a) (Homo sapiens, UniProt Q92847); test: cAMP assay (HTRF), CHO-hGHS-R1a cells; format: cell-based; conditions: for hGHS-R1a cAMP assay Emax/% / Emax: relative to the ghrelin response (defined as 100%)
T1 construct: host or cells: CHO-K1
Method: (§1) Chinese hamster ovary (CHO-K1) cells expressing human recombinant ghrelin receptor (GHS-R1a) were purchased from Euroscreen (ES-410-C) and propagated in UltraCHO medium containing glutamine and supplemented with 1% heat inactivated foetal calf serum (FCS), 100 U/ml penicillin, 100 mg/l streptomycin and 0.8 g/l geneticin. Cells were sub-cultured twice a week with a 1:10 dilution. For passaging, cells were washed with 1× DPBS without calcium and magnesium, trypsinised for 10 min with 0.05% Trypsin/EDTA and resuspended in cell culture medium.
The Homogeneous Time-Resolved Fluorescence (HTRF) cAMP dynamic 2 kit (Cisbio International, France) was used as follows. CHO-hGHS—R1a or CHO-rGHS—R1a cells were seeded in a volume of 25 μl culture media at 10,000 cells/well (400,000 cells/ml) in Greiner white 384-well high volume plates and incubated overnight (18-24 h) at 37° C./5% CO2. Then, media was removed and 6 μl assay buffer [HBSS, 10 mM Hepes, 0.2% (w/v) BSA, 1.7 mM IBMX, (pH7.4)] were added to the wells. To generate a dose response up to 30 μM, 10 mM compound stocks in 100% (v/v) DMSO were firstly diluted in 50% (v/v) DMSO followed by a further dilution into assay buffer. Then, 4 μl of 2.5× compound (dose response as 9 point log serial dilution in assay buffer from 30 μM as maximum concentration) were added to each well achieving a final DMSO assay concentration of 0.8% (v/v). 0.1 μM forskolin was added as positive control. After 30 min (rGHS—R1a cell line) or 60 min (hGHS—R1a cell line) incubation at 37° C./5% CO2, 5 μl of cAMP-d2 and 5 μl of anti-cAMP antibody-cryptate, (both made in lysis buffer), were added to the plate followed by 1 h incubation at RT. During this time, cAMP produced by the cells competed with cAMP-d2 for the anti-cAMP antibody-cryptate molecule. Then, the plate was read on the Pherastar instrument (BMG, Germany) at two different emission wavelengths ([…]). Increasing levels of endogenous cAMP produced by cells could be followed by a decrease of FRET fluorescent signal and viceversa. Values represented by a change in arbitrary fluorescence ratios (665/620) were converted into cAMP concentrations by using a standard curve, the reagents for which were supplied with the kit. EC50 values of agonists were calculated using the nonlinear logistic function of the Prism 5 software (GraphPad, USA). Emax were expressed as relative values of the ghrelin response, which was defined as 100%.

[2] = biological target: T1, human recombinant ghrelin receptor (GHS-R1a); test: Calcium assay, CHO-K1 cells expressing hGHS-R1a (Fluo-4); format: cell-based; conditions: for Emax: CHO-K1, relative to the Emax induced by MK-0677 (defined as 100%), read-out: hGHS-R1a Ca assay Emax/%
Method: as §1
Cells were diluted to achieve 1×10^6 cells/ml, seeded in 384-well black clear bottom CellBind plates at 25000 cells/well (25u1) and incubated overnight at 37° C./5% CO2 Cells were expected to be 85-90% confluent on the day of assay (checked under the microscope) to ensure a high quality assay. Media was manually removed and 40 μl of loading solution containing probenecid and Fluo-4 no wash dye (a calcium indicator, Invitrogen F36206) were added to each well. After 30 min at 37° C. followed by another 30 min at RT, cpds were added to the wells. To generate a dose response up to 30 μM, 10 mM compound stocks in 100% (v/v) DMSO were firstly diluted in 50% (v/v) DMSO. Then, serial dilutions aimed at a full logarithmic dose responses (8 point) were performed in assay buffer [1×HBSS, 20 mM Hepes, 0.1% (w/v) BSA] to give 2.5% (v/v) DMSO and 5× final compound concentrations. The final assay DMSO concentration was 0.5% (v/v). After loading the cells with Fluo-4 containing solution, plates were read on a CeIlLux instrument (Perkin Elmer). A protocol set up to add 10 μl of 5× compound and to read the plate for 60sec after adding the compound at 17th sec was used. Fluorescence excitation took place at 494 nm and emission at 516 nm. EC50 values of agonists were calculated by fitting the percent stimulation over background [(Max-Min)/Min] using the nonlinear logistic function of the Prism 5 software (GraphPad, USA).

rat fundus = test: Rat fundus contractility assay (EFS-induced contraction of muscle strips); conditions: for EC50: increase of EFS-induced contraction, mean of preparations from at least 3 animals; for Emax/% / Emax: relative to the response to ghrelin (100 nM), defined as 100%
Method: Male Sprague Dawley rats (180-250 g) were culled by cervical dislocation and the fundus was removed. Each fundus was placed on a Krebs Henseleit (KH) buffer soaked dissection dish and cut along the long curvature to form a flattened sheet that was pinned in each corner. Four adjacent longitudinal strips (10×3 mm) were cut and the mucosa removed by sharp dissection. Each muscle strip was mounted in a 10 ml organ bath containing oxygenated KH at 37° C. Each strip was connected to an isometric force transducer, calibrated initially using a 5 g weight. The signal (g tension) was amplified and responses recorded by a Powerlab data capture system, connected to a computer running Labchart software (version 5.0). Tissues were placed under 1 g tension for an equilibration period of 30 min or until the baseline tension had stabilised. Carbachol (CCh, 100 nM) was then administered to establish the maximum contractile response of each preparation. Tissues were washed thoroughly and left for 30 min to re-equilibrate. Next, the muscle strips underwent electrical field stimulation (EFS). Maximal EFS pulse trains of 12V, 5 Hz, 0.1 msec pulse width, for 2 sec every 60 sec were applied until consistent electrically-stimulated phasic contractions were recorded. The voltage was then reduced in 1V increments until a consistent submaximal (EC50-75) EFS response was observed. Ghrelin (100 nM) was administered and left until a maximum response was obtained. Tissues were then washed thoroughly and left for 30 min. Once the EFS-induced contraction had re-stabilised, cumulative additions (10 nM-10 μM) of each test compound were administered. Individual responses were calculated by determining the peak of the EFS-induced contraction minus the baseline. […] The mean EC50 value for compounds was generated from data obtained on stomach preparations from at least 3 different animals.

T1 sequence (Q92847 whole entry): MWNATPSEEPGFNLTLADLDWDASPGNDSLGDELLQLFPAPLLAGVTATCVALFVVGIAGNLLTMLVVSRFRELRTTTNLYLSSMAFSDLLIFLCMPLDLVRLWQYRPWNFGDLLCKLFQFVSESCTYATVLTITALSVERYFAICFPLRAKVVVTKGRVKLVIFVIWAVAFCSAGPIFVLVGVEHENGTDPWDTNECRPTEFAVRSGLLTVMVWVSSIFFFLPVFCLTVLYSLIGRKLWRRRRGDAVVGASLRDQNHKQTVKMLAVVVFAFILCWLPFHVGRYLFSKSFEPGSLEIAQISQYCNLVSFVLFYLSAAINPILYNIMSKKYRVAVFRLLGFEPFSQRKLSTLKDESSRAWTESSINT

| Compound | Emax [1] [%] | Emax [2] [%] | EC50 (rat fundus; Rattus norvegicus) [nM] | Emax (rat fundus; Rattus norvegicus) [%] | also measured |
| --- | --- | --- | --- | --- | --- |
| CN1CC(c2ccccc2)C2(CCCN(C(=O)[C@@H](COCc3ccccc3)NC(=O)C(C)(C)N)C2)C1=O (single isomer, unassigned) [Example 1.21] | – | – | – | – | hGHS-R1a cAMP assay Emax/% [1]: 122%; hGHS-R1a Ca assay Emax/% ([2]; relative to the Emax induced by MK-0677 (defined as 100%)): 105%; EC50 (rat fundus): 84 nM; Emax/% (rat fundus): 81% |
| CN1C[C@@H](c2ccccc2)[C@@]2(CCCN(C(=O)[C@@H](COCc3ccccc3)NC(=O)C(C)(C)N)C2)C1=O (single isomer, unassigned) [Example 1.0(ii)] | 141 | 100 | 13 | 66 | – |
| CN(C)C(=O)CN1CC(c2ccccc2)C2(CCCN(C(=O)[C@@H](COCc3ccccc3)NC(=O)C(C)(C)N)C2)C1=O (single isomer, unassigned) [Example 1.16] | 210 | 101 | 13 | 124 | – |
| CN1CC(c2ccc(F)cc2)C2(CCCN(C(=O)[C@@H](Cc3c[nH]c4ccccc34)NC(=O)C(C)(C)N)C2)C1=O (single isomer, unassigned) [Example 1.11] | 289 | 102 | 24 | 99 | – |
| CNC(C)(C)C(=O)N[C@H](COCc1ccccc1)C(=O)N1CCCC2(C1)C(=O)N(C)CC2c1ccccc1 (single isomer, unassigned) [Example 1.17] | 124 | 107 | 137 | 113 | – |
| CN1CC(c2ccccc2)C2(CCCN(C(=O)[C@@H](CCCc3ccccc3)NC(=O)C(C)(C)N)C2)C1=O (single isomer, unassigned) [Example 1.32] | 176 | 103 | – | – | EC50 (rat fundus): 19 nM; Emax/% (rat fundus): 109% |
| CC(C)N1CC(c2ccccc2)C2(CCCN(C(=O)[C@@H](COCc3ccccc3)NC(=O)C(C)(C)N)C2)C1=O (single isomer, unassigned) [Example 1.5] | 195 | 96 | – | 80 | EC50 (rat fundus): 35 nM |
| CC(C)(C)CN1CC(c2ccccc2)C2(CCCN(C(=O)[C@@H](COCc3ccccc3)NC(=O)C(C)(C)N)C2)C1=O (single isomer, unassigned) [Example 1.40] | 164 | 86 | 59 | 117 | – |
| CN1CC(c2ccccc2)C2(CCCN(C(=O)[C@@H](COCc3ccccc3)NC(=O)C(C)(C)N)C2)C1=O (single isomer, unassigned) [Example 1.20] | – | 99 | – | – | hGHS-R1a cAMP assay Emax/% [1]: 169%; EC50 (rat fundus): 393 nM; Emax/% (rat fundus): 39% |
| CC(C)N1CC(c2ccc(F)cc2)C2(CCCN(C(=O)[C@@H](Cc3cn(C)c4ccccc34)NC(=O)C(C)(C)N)C2)C1=O (single isomer, unassigned) [Example 1.15] | 331 | 112 | 36 | 123 | – |
| CN1CC(c2ccccc2)C2(CCN(C(=O)[C@@H](COCc3ccccc3)NC(=O)C(C)(C)N)C2)C1=O (single isomer, unassigned) [Example 8.0] | 129 | 101 | – | – | EC50 ([1]; CHO-hGHS-R1a cells, 60 min incubation, maximum concentration 30 μM): 2.38 µM; EC50 ([2]; CHO-K1 cells expressing hGHS-R1a, read-out: hGHS-R1a Ca assay EC50/μM): 0.0046 µM |
| CCN1CC(c2ccccc2)C2(CCCN(C(=O)[C@@H](COCc3ccccc3)NC(=O)C(C)(C)N)C2)C1=O (single isomer, unassigned) [Example 1.25] | 223 | 103 | – | – | – |
| CN1N=C(c2ccccc2)C2(CCCN(C(=O)[C@@H](COCc3ccccc3)NC(=O)C(C)(C)N)C2)C1=O (mixture of isomers) [Example 1.47, 2-Amino-N-[(R)-1-benzyloxymetnyl-2-(3-methyl-4-oxo-1-phenyl-2,3,7-triaza-spiro[4.5]dec-1-en-7-yl)-2-oxo-ethyl]-2-methyl-propionamide] | 145 | 104 | – | – | – |
| Cc1ccc(COC[C@@H](NC(=O)C(C)(C)N)C(=O)N2CCCC3(C2)C(=O)N(C)CC3c2ccc(F)cc2)cc1 (single isomer, unassigned) [Example 1.29] | 243 | 102 | 48 | 100 | – |
| Cc1ccccc1C1CN(C)C(=O)C12CCCN(C(=O)[C@@H](COCc1ccccc1)NC(=O)C(C)(C)N)C2 (single isomer, unassigned) [Example 1.51] | 141 | 98 | – | – | – |
| Cc1ccc(COC[C@@H](NC(=O)C(C)(C)N)C(=O)N2CCCC3(C2)C(=O)N(C)CC3c2ccccc2)cc1 (single isomer, unassigned) [Example 1.55] | 191 | 94 | – | – | – |
| CN1CC(c2ccccc2)C2(CCCN(C(=O)[C@@H](CCc3ccccc3)NC(=O)C(C)(C)N)C2)C1=O (single isomer, unassigned) [Example 1.28] | 194 | 106 | – | – | – |
| CCC(N)(CC)C(=O)N[C@H](COCc1ccccc1)C(=O)N1CCC[C@@]2(C1)C(=O)N(C)C[C@H]2c1ccccc1 [Example 1.71, 2-amino-N-((R)-3-(benzyloxy)-1-((4S,5R)-2-methyl-1-oxo-4-phenyl-2,7-diazaspiro[4.5]decan-7-yl)-1-oxopropan-2-yl)-2-ethylbutanamide] | 111 | 108 | – | – | – |
| COc1ccc(COC[C@@H](NC(=O)C(C)(C)N)C(=O)N2CCCC3(C2)C(=O)N(C)CC3c2ccccc2)cc1 (single isomer, unassigned) [Example 6.0(ii), 2-Amino-N—[(R)-1-(4-methoxy-benzyloxymethyl)-2-((4S,5R)-2-methyl-1-oxo-4-phenyl-2,7-diaza-spiro[4.5]dec-7-yl)-2-oxo-ethyl]-2-methyl-propionamide or 2-Amino-N—[(R)-1-(4-methoxy-benzyloxymethyl)-2-(4R,5S)-2-methyl-1-oxo-4-phenyl-2,7-diaza-spiro[4.5]dec-7-yl)-2-oxo-ethyl]-2-methyl-propionamide] | 268 | 103 | – | – | – |

Reference: patent US20130296358A1, “3-SPIROCYCLIC PIPERIDINE DERIVATIVES AS GHRELIN RECEPTOR AGONISTS” (priority 2012, published 2013)
